Results published in publication PMC8329300, “X-ray crystallography reveals molecular recognition mechanism for sugar binding in a melibiose transporter MelB” (Communications Biology, 2021).
“And” between values parts separate entries of the source, which are not always exact repeats. Equal values may be shown once.

Key:
[1] = target: T1, WT MelBSt (Salmonella typhimurium, UniProt P30878); settings: cited from earlier work
T1 construct: Cys scanning mutagenesis for the full-length MelBSt; His10 (C); made in house; host or cells: E. coli DW2
T1 sequence (P30878 whole entry): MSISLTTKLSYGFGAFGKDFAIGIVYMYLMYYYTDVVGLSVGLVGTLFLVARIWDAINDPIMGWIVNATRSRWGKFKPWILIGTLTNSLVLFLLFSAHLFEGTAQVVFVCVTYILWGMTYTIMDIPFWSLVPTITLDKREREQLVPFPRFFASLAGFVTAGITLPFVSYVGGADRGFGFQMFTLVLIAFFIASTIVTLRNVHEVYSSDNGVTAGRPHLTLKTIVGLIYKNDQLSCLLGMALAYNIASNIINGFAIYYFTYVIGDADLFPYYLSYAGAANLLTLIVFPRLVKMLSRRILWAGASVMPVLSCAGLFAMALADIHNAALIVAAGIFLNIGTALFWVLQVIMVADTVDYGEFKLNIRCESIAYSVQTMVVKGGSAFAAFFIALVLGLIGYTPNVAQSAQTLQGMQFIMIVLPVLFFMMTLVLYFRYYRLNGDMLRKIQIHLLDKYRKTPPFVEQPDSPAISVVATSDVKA

[2] = target: T2, D59C MelBSt (Salmonella typhimurium, UniProt P30878, D59C); assay: Trp→dansyl galactoside (D2G) FRET time trace and IC50 of D2G displacement (D59C); format: binding
T2 construct: Cys scanning mutagenesis for the full-length MelBSt; His10 (C); made in house; host or cells: E. coli DW2
T2 sequence (P30878 whole entry D59C): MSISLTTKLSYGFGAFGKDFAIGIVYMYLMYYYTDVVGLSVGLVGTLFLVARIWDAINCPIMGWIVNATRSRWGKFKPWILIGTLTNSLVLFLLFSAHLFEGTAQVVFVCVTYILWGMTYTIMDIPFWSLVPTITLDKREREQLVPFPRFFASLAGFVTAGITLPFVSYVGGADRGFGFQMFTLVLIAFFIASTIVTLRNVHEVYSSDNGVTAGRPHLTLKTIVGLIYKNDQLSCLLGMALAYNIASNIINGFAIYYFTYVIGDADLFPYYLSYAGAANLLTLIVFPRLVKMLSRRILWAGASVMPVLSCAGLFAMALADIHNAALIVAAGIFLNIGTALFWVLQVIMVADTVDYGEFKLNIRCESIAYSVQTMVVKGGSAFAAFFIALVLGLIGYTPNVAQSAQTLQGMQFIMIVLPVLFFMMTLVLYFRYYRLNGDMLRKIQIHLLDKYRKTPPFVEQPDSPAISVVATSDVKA
Procedure: Fig. 1 Functional characterizations. a [^3H] Melibiose transport time course with intact cells. […] Inset, melibiose fermentation assay. Transformants with DW2 strain were plated on MacConkey agar plates containing 30 mM melibiose as the sole carbohydrate source and pH sensor neutral red, and incubated at 37 °C for 16–18 h before imaging. Number of tests = 3, from different batch of cells or duplicate measurements from same batch of sample. b Ligand binding by Trp→dansyl galactoside (D^2G) FRET assay. Purified proteins at 1 μM concentration in 20 mM Tris-HCl, pH 7.5, 100 mM CholCl, 10% glycerol, and 0.03% UDM were subjected to steady-state fluorescence measurements as described in Methods. On the time-trace, 1.8 μL of 1 mM D^2G at 10 μM was added into 180 μL of protein solutions at 1-min point, followed by supplying 10 μL of 5 mM DDMB or 5 mM α-NPG to displace the bound D^2G. For testing Na^+ or Li^+ binding, they are added into the solution before displacement with the second sugar. The structure of DDMB or α-NPG is shown in a chair form, and the carbon positions are labeled. Glycosidic bonds are indicated by arrows. Both are α-galactosides containing a substituent at the anomeric carbon-1. The data were from duplicate measurements.
Steady-state fluorescence measurements were performed with an AMINCO-Bowman series 2 spectrometer with purified MelBSt at 1 μM in 20 mM Tris-HCl, pH 7.5, 100 mM CholCl, 10% glycerol, 0.03% UDM. Using an excitation wavelength at 290 nm, the emission intensity was recorded at 490 nm. On a time-trace, D^2G, NaCl or LiCl, then DDMB or α-NPG, were sequentially added into the protein solutions at a 1 min-interval. […] An identical volume of water was used for the control. The decrease in intensity after each addition of DDMB or α-NPG was corrected by the dilution effect and plotted as a function of the accumulated α-NPG concentrations or estimated DDMB concentrations. The 50% inhibitory concentration (IC50) was determined by fitting a hyperbolic function to the data (OriginPro 2020b). The final concentration of each detergent is estimated to be 234 μM, which is less than their CMC value for (DDMB, 295 μM).
Supplementary Figure 2. Determination of DDMB binding affinity to MelBSt. (a) Titration with DDMB or a-NPG. MelBSt in 20 mM Tris-HCl, pH 7.5, 100 mM CholCl, 10% glycerol, 0.03% UDM without (1) or with 100 mM NaCl (2) were added with D2G at 10 μM at 1-min time point as indicated by triangle symbols on the Trp®dansyl FRET time trace. Starting at the 2-min of time point, DDMB or a-NPG solution was supplemented consecutively at a 1-min interval into MelBSt solution till no change in fluorescence intensity reached as indicated in star symbols. DDM and UDM were used as negative controls. 1% DDM or UDM was titrated into the mixture, The […]
At 2-min time point, additions of galactosides were colored in pink, a-NPG in yellow, UDM in blue, DDM in light blue, water in gray traces, respectively. (b) IC50 determination. The intensity decrease at each titration were corrected by the dilution effect, and plotted as a function of the accumulated DDMB or α-NPG concentration. The 50% inhibitory concentration (IC50) was determined by fitting the data to a hyperbolic function (OriginPro 2020b). Results are presented in […]
(1 picture or pasted object on this page, not shown here)

## CN(C)c1cccc2c(S(=O)(=O)NCCS[C@@H]3O[C@H](CO)[C@H](O)[C@H](O)[C@H]3O)cccc12 [D^2G, 2′-(N-dansyl)aminoalkyl-1-thio-β-D-galactopyranoside]
[1]
  Kd: 10 µM
[2]; D59C MelBSt mutant H+, Time 1.58333
  Trp to D2G FRET signal, Test: 1.236 and 1.275
[2]; D59C MelBSt mutant H+, Time 1.6
  Trp to D2G FRET signal, Test: 1.234 and 1.287
[2]; D59C MelBSt mutant H+, Time 1.61667
  Trp to D2G FRET signal, Test: 1.243 and 1.289
[2]; D59C MelBSt mutant H+, Time 1.63333
  Trp to D2G FRET signal, Test: 1.234 and 1.283
[2]; D59C MelBSt mutant H+, Time 1.65
  Trp to D2G FRET signal, Test: 1.232 and 1.292
[2]; D59C MelBSt mutant H+, Time 1.66667
  Trp to D2G FRET signal, Test: 1.262 and 1.286
[2]; D59C MelBSt mutant H+, Time 1.68333
  Trp to D2G FRET signal, Test: 1.239 and 1.271
[2]; D59C MelBSt mutant H+, Time 1.7
  Trp to D2G FRET signal, Test: 1.251 and 1.2854
[2]; D59C MelBSt mutant H+, Time 1.71667
  Trp to D2G FRET signal, Test: 1.228 and 1.2851
[2]; D59C MelBSt mutant H+, Time 1.73333
  Trp to D2G FRET signal, Test: 1.233 and 1.277
[2]; D59C MelBSt mutant H+, Time 1.75
  Trp to D2G FRET signal, Test: 1.255 and 1.269
[2]; D59C MelBSt mutant H+, Time 1.76667
  Trp to D2G FRET signal, Test: 1.25 and 1.265
[2]; D59C MelBSt mutant H+, Time 1.78333
  Trp to D2G FRET signal, Test: 1.239 and 1.277
[2]; D59C MelBSt mutant Li+, Time 1.58333
  Trp to D2G FRET signal, Test: 1.183 and 1.18 and 1.353
[2]; D59C MelBSt mutant Li+, Time 1.6
  Trp to D2G FRET signal, Test: 1.194 and 1.191 and 1.312
[2]; D59C MelBSt mutant Li+, Time 1.61667
  Trp to D2G FRET signal, Test: 1.182 and 1.19 and 1.349
[2]; D59C MelBSt mutant Li+, Time 1.63333
  Trp to D2G FRET signal, Test: 1.194 and 1.172 and 1.325
[2]; D59C MelBSt mutant Li+, Time 1.65
  Trp to D2G FRET signal, Test: 1.192 and 1.191 and 1.377
[2]; D59C MelBSt mutant Li+, Time 1.66667
  Trp to D2G FRET signal, Test: 1.194 and 1.178 and 1.324
[2]; D59C MelBSt mutant Li+, Time 1.68333
  Trp to D2G FRET signal, Test: 1.1972 and 1.188 and 1.334
[2]; D59C MelBSt mutant Li+, Time 1.7
  Trp to D2G FRET signal, Test: 1.181 and 1.193 and 1.331
[2]; D59C MelBSt mutant Li+, Time 1.71667
  Trp to D2G FRET signal, Test: 1.193 and 1.183 and 1.334
[2]; D59C MelBSt mutant Li+, Time 1.73333
  Trp to D2G FRET signal, Test: 1.188 and 1.175 and 1.3208
[2]; D59C MelBSt mutant Li+, Time 1.75
  Trp to D2G FRET signal, Test: 1.1972 and 1.183 and 1.3266
[2]; D59C MelBSt mutant Li+, Time 1.76667
  Trp to D2G FRET signal, Test: 1.189 and 1.172 and 1.31
[2]; D59C MelBSt mutant Na+, Time 1.58333
  Trp to D2G FRET signal, Test: 1.29 and 1.292 and 1.375
[2]; D59C MelBSt mutant Na+, Time 1.6
  Trp to D2G FRET signal, Test: 1.287 and 1.293 and 1.38
[2]; D59C MelBSt mutant Na+, Time 1.61667
  Trp to D2G FRET signal, Test: 1.293 and 1.2915 and 1.362
[2]; D59C MelBSt mutant Na+, Time 1.63333
  Trp to D2G FRET signal, Test: 1.299 and 1.278 and 1.358
[2]; D59C MelBSt mutant Na+, Time 1.65
  Trp to D2G FRET signal, Test: 1.272 and 1.269 and 1.372
[2]; D59C MelBSt mutant Na+, Time 1.66667
  Trp to D2G FRET signal, Test: 1.295 and 1.266 and 1.37
[2]; D59C MelBSt mutant Na+, Time 1.68333
  Trp to D2G FRET signal, Test: 1.287 and 1.289 and 1.378
[2]; D59C MelBSt mutant Na+, Time 1.7
  Trp to D2G FRET signal, Test: 1.301 and 1.273 and 1.365
[2]; D59C MelBSt mutant Na+, Time 1.71667
  Trp to D2G FRET signal, Test: 1.2912 and 1.279 and 1.361
[2]; D59C MelBSt mutant Na+, Time 1.73333
  Trp to D2G FRET signal, Test: 1.293 and 1.29 and 1.3441
[2]; D59C MelBSt mutant Na+, Time 1.75
  Trp to D2G FRET signal, Test: 1.291 and 1.287 and 1.358
[2]; D59C MelBSt mutant Na+, Time 1.76667
  Trp to D2G FRET signal, Test: 1.307 and 1.279 and 1.387
[2]; D59C MelBSt mutant Na+, Time 1.78333
  Trp to D2G FRET signal, Test: 1.304 and 1.264
